Reference: patent US20150105252A1, “SUBSTITUTED PYRAZOLES AS HERBICIDES” (E I DU PONT DE NEMOURS AND COMPANY, priority 2013, published 2015)

Experiments:
Details in all cases: scale 0 to 100
blackgrass = assay: Test D preemergence; assay type: in vivo, Alopecurus myosuroides
Text: (§1) Seeds of plant species selected from bluegrass (annual bluegrass, Poa annua), blackgrass (Alopecurus myosuroides), canarygrass (littleseed canarygrass, Phalaris minor), chickweed (common chickweed, Stellaria media), galium (catchweed bedstraw, Galium aparine), bromegrass, downy (downy bromegrass, Bromus tectorum), field poppy (Papaver rhoeas), field violet (Viola arvensis), foxtail, green (green foxtail, Setaria viridis), deadnettle (henbit deadnettle, Lamium amplexicaule), ryegrass, Italian (Italian ryegrass, Lolium multiflorum), kochia (Kochia scoparia), lambsquarters (Chenopodium album), oilseed rape (Brassica napus), pigweed (redroot pigweed, Amaranthus retroflexus), chamomile (scentless chamomile, Matricaria inodora), speedwell (bird's-eye speedwell, Veronica persica), barley, spring (spring barley, Hordeum vulgare), wheat, spring (spring wheat, Triticum aestivum), buckwheat, wild (wild buckwheat, Polygonum convolvulus), mustard, wild (wild mustard, Sinapis arvensis), oat, wild (wild oat, Avena fatua), radish, wild (wild radish, Raphanus raphanistrum), windgrass (Apera spica-venti), Russian thistle (Salsola kali), barley, winter (winter barley, Hordeum vulgare), and wheat, winter (winter wheat, Triticum aestivum) were planted into a silt loam soil and treated preemergence with test chemicals formulated in a non-phytotoxic solvent mixture which included a surfactant.
(§2) At the same time, these species were planted in pots containing Redi-Earth® planting medium (Scotts Company, 14111 Scottslawn Road, Marysville, Ohio 43041) comprising spaghnum peat moss, vermiculite, wetting agent and starter nutrients and treated with postemergence applications of the test chemicals formulated in the same manner. Plants ranged in height from 2 to 18 cm (1- to 4-leaf stage). Treated plants and controls were maintained in a controlled growth environment for 14 to 21 days after which time all species were compared to controls and visually evaluated. Plant response ratings, summarized in Table D, are based on a scale of 0 to 100 where 0 is no effect and 100 is complete control. A dash (-) response means no test result.

chickweed = assay: Test D preemergence; assay type: in vivo, Stellaria media
Procedure, shortened: (§3)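 Visual 0-100 rating (100 = complete control) against untreated plants, made 14 to 21 days after treatment in a controlled environment. Compounds, formulated with surfactant in non-phytotoxic solvent, were applied either to seeds just sown in silt loam or to 1- to 4-leaf plants (2 to 18 cm) grown in peat-based medium.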

field poppy = assay: Test D preemergence; assay type: in vivo, Papaver rhoeas
Text: as §1, §2

field violet = assay: Test D preemergence; assay type: in vivo, Viola arvensis
Text: as §1, §2

wheat, spring = assay: Test D preemergence; assay type: in vivo, Triticum aestivum
Procedure, shortened: as §3

wheat, winter = assay: Test D preemergence; assay type: in vivo, Triticum aestivum
Procedure, shortened: as §3

windgrass [1] = assay: Test D preemergence; assay type: in vivo, Apera spica-venti
Procedure, shortened: as §3

galium = assay: Test D postemergence; assay type: in vivo, Galium aparine
Procedure, shortened: as §3

buckwheat, wild = assay: Test D postemergence; assay type: in vivo, Polygonum convolvulus
Procedure, shortened: as §3

windgrass [2] = assay: Test D postemergence; assay type: in vivo, Apera spica-venti
Procedure, shortened: as §3

SMILES	Plant response rating, Blackgrass (blackgrass; 31 g ai/ha)	Plant response rating, Blackgrass (blackgrass; 62 g ai/ha)	Plant response rating, Blackgrass (blackgrass; 125 g ai/ha)	Plant response rating, Blackgrass (blackgrass; 250 g ai/ha)	Plant response rating, Chickweed (chickweed; 31 g ai/ha)	Plant response rating, Chickweed (chickweed; 62 g ai/ha)	Plant response rating, Chickweed (chickweed; 125 g ai/ha)	Plant response rating, Chickweed (chickweed; 250 g ai/ha)	Plant response rating, Field Poppy (field poppy; 62 g ai/ha)	Plant response rating, Field Poppy (field poppy; 125 g ai/ha)	Plant response rating, Field Poppy (field poppy; 250 g ai/ha)	Plant response rating, Field Violet (field violet; 62 g ai/ha)	Plant response rating, Field Violet (field violet; 125 g ai/ha)	Plant response rating, Field Violet (field violet; 250 g ai/ha)	Plant response rating, Wheat, Spring (wheat, spring; 62 g ai/ha)	Plant response rating, Wheat, Spring (wheat, spring; 125 g ai/ha)	Plant response rating, Wheat, Spring (wheat, spring; 250 g ai/ha)	Plant response rating, Wheat, Winter (wheat, winter; 62 g ai/ha)	Plant response rating, Wheat, Winter (wheat, winter; 125 g ai/ha)	Plant response rating, Wheat, Winter (wheat, winter; 250 g ai/ha)	further results
CCCc1cc(C(=O)NCC(F)(F)F)nn1Cc1cc(C(F)(F)F)nn1C [Compound 138]	15	30	85	100	100	100	100	100	100	100	100	100	100	100	10	35	50	30	40	60	Plant response rating, Windgrass (windgrass [1]; 62 g ai/ha): 45; Plant response rating, Windgrass (windgrass [1]; 125 g ai/ha): 100; Plant response rating, Windgrass (windgrass [1]; 250 g ai/ha): 100; Galium plant response rating (galium; Postemergence, 31 g ai/ha): 80; Galium plant response rating (galium; Postemergence, 125 g ai/ha): 100; Galium plant response rating (galium; Postemergence, 250 g ai/ha): 100; Galium plant response rating (galium; postemergence, 62 g ai/ha): 80; Buckwheat, Wild plant response rating (buckwheat, wild; Postemergence, 31 g ai/ha): 65; Buckwheat, Wild plant response rating (buckwheat, wild; Postemergence, 125 g ai/ha): 70; Buckwheat, Wild plant response rating (buckwheat, wild; Postemergence, 250 g ai/ha): 80; Buckwheat, Wild plant response rating (buckwheat, wild; postemergence, 62 g ai/ha): 65; Windgrass plant response rating (windgrass [2]; Postemergence, 31 g ai/ha): 20; Windgrass plant response rating (windgrass [2]; Postemergence, 125 g ai/ha): 35; Windgrass plant response rating (windgrass [2]; Postemergence, 250 g ai/ha): 60; Windgrass plant response rating (windgrass [2]; postemergence, 62 g ai/ha): 20
CCOc1cc(C(=O)NC2CC2)nn1Cc1ccnc(C(F)(F)F)c1 [Compound 189]	35	60	80	100	95	100	100	100	100	100	100	100	100	100	10	40	80	15	65	85	Plant response rating, Windgrass (windgrass [1]; 62 g ai/ha): 65; Plant response rating, Windgrass (windgrass [1]; 125 g ai/ha): 100; Plant response rating, Windgrass (windgrass [1]; 250 g ai/ha): 100; Galium plant response rating (galium; Postemergence, 31 g ai/ha): 75; Galium plant response rating (galium; Postemergence, 125 g ai/ha): 75; Galium plant response rating (galium; Postemergence, 250 g ai/ha): 85; Galium plant response rating (galium; postemergence, 62 g ai/ha): 75; Buckwheat, Wild plant response rating (buckwheat, wild; Postemergence, 31 g ai/ha): 70; Buckwheat, Wild plant response rating (buckwheat, wild; Postemergence, 125 g ai/ha): 70; Buckwheat, Wild plant response rating (buckwheat, wild; Postemergence, 250 g ai/ha): 80; Buckwheat, Wild plant response rating (buckwheat, wild; postemergence, 62 g ai/ha): 70; Windgrass plant response rating (windgrass [2]; Postemergence, 31 g ai/ha): 15; Windgrass plant response rating (windgrass [2]; Postemergence, 125 g ai/ha): 20; Windgrass plant response rating (windgrass [2]; Postemergence, 250 g ai/ha): 35; Windgrass plant response rating (windgrass [2]; postemergence, 62 g ai/ha): 15
